# Results from patent US7951530B2, “Cyclic maltosylmaltose, cyclic maltosymaltose-forming enzyme, their preparation and uses” (Kabushiki Kaisha Hayashibara Seibutsu Kagaku Kenkyujo, priority 2003, dated 2011).
# T1: Salivary α-amylase (Homo sapiens, UniProt P0DUB6)
# T1 sequence (P0DUB6 16-511): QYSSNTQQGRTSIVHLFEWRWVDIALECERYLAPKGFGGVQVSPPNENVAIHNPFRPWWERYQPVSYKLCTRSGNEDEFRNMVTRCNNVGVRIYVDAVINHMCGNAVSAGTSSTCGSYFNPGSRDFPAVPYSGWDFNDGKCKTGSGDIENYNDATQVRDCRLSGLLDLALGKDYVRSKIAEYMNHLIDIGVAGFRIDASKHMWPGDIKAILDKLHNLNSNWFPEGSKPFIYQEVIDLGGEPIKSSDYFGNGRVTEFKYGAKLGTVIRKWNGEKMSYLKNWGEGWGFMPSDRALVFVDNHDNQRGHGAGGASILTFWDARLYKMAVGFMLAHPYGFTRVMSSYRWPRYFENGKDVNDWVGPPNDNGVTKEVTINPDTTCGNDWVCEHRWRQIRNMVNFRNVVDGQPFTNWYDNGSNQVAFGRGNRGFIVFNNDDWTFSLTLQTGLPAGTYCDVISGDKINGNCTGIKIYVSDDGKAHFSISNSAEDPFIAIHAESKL
# B1: CMM-forming enzyme: enzyme from Arthrobacter globiformis M6 acting on α-1,4 glucans of polymerization degree 3 or higher to form CMM; SEQ ID NO:2 (protein, listed as Arthrobacter globiformis)
# chain: DPTTSPGPLAEGDVIYQVLVDRFEDGDPTNNDQGDGEYDPSDLGFYHGGDWAGLTDRLDYIADLGVTAIWLSPVSEQQPLSRDGLEASYHGYFTRDFATPNEHFGDRAELQELIDTAHDLGLKMILDVVPNHTADYLAGTSTTYSPSTYKPASPLDDASYFHHAGDCLFNGLETQTQIENCDLGGLDDLDQSNPVVSSHLMSTYKDWVDMGFDGIRVDAARSVPKPWLADFEAEMGVPTFGEVFVGDVDYVSEYQDYEWGVLDFPYFFTVREAFSADTDMNKLGDLFDQDSKYANPNRLETFLDNHDRARFLTWADDNYQRLRSGLTFLLTSRGVPVIYYGTEQADDGNGNPYEVPIANKDNRKDMESFDQNSNLYKHIQRLTAIKAAYPALQVGTQREMWSDTSVYGFSRRVDSTGAEAMTFSSNSWTTQTRTVPLRAESSITVGTTLTNLMNTGDTVTVTAGGVTGKQITVSLGEHESKVYAPGTPVSAYSPEARNTTKIRVHYNVGLGHSIAIRGDEYPFTWTSGRGARNVASDVWEFEVERIPDGETFQFKPLIDDVTWSTGGNFTGTGGDVIDIYPTF
# Key:
# CMM-forming enzyme = experiment: Action on various saccharides (substrate specificity, TLC); assay type: biochemical, Arthrobacter globiformis M6; set-up: key: “−” means “Not changed”; “+” means “Spot of substrate is slightly decreased and other products are detected”; “++” means “Spot of substrate is markedly decreased and other products are detected”; “+++” means “Spot of substrate is virtually disappeared and other products are detected”; details: substrate 2% (w/v), one unit/g-substrate enzyme, 40° C., pH 6.0, 24 hours, TLC before and after reaction
# Protocol: Substrate specificity of CMM-forming enzyme of the present invention was investigated using various saccharides as substrates. Substrate solutions were prepared by dissolving maltose, maltotriose, maltotetraose, maltopentaose, maltohexaose, maltoheptaose, neotrehalose, trehalose, kojibiose, nigerose, […] isomaltose, isomaltotriose, panose, isopanose, maltitol, maltotriitol, α-, β- or γ-cyclodextrin, amylose, soluble starch, glycogen, pullulan or dextran into water. Each substrate solution was admixed with acetate buffer (pH 6.0) and CaCl2 to give final concentrations of 20 mM and 1 mM, respectively. […] Substrate concentration was set to 2% (w/v) and followed by the enzyme reaction at 40° C. and pH 6.0 for 24 hours. Action and the specificity of the enzyme on these saccharides were confirmed by analyzing the reaction mixture before and after the reaction by TLC described in Experiment 1.
# [1] = Amino-carbonyl reaction with polypeptone; assay type: physicochemical; details: 5% (w/v) saccharide, 5% (w/v) polypeptone, 120° C., blank subtracted
# Protocol: (§1) As a control, an aqueous solution containing maltose and polypeptone was prepared in the same manner using maltose except for the powdery hydrous crystalline CMM. Four milliliters each of the solution was put in a glass tube, sealed and then heated at 120° C. for 30, 60, or 90 min. After cooling the solutions, the degrees of coloring of the solutions were measured to estimate the degree of amino-carbonyl reaction. As a blank test, a solution containing polypeptone only was heated in the same manner. The degree of coloring was defined as an absorbance at 480 nm using a 1 cm-cell after subtracting the absorbance of the blank test.
# [2] = Amino-carbonyl reaction with glycine; assay type: physicochemical; details: […] (w/v) saccharide, 0.5% (w/v) glycine, pH 8.0, 100° C.
# Protocol: as §1, with “glycine” for “polypeptone”, “100°” for “120°”, “reaction.” for “reaction. As a blank test, a solution containing polypeptone only was heated in the same manner.”, “cm-cell.” for “cm-cell after subtracting the absorbance of the blank test.”
# Pancreas α-amylase = experiment: Digestibility by pancreas α-amylase
# Excerpt: (§2) 43, 23-29 (1990), the digestibility of CMM by salivary α-amylase, artificial gastric juice, pancreas amylase, and small intestinal enzymes were investigated using the powdery hydrous crystalline CMM, obtained by the method in Experiment 14.
# [3] = Digestibility by artificial gastric juice
# Excerpt: as §2
# Salivary α-amylase = biological target: T1, Salivary α-amylase; experiment: Digestibility by salivary α-amylase
# Excerpt: as §2
# Small intestinal enzymes = experiment: Digestibility by small intestinal enzymes
# Excerpt: as §2
# [4] = Isoelectric point of CMM-forming enzyme; assay type: physicochemical, Arthrobacter globiformis M6
# Protocol: The purified enzyme preparation of CMM-forming enzyme, obtained by the method in Experiment 4, was subjected to polyacrylamide gel isoelectrofocusing containing 2% (w/v) “AMPHOLINE”, a carrier ampholyte commercialized by Amersham Biosciences, Tokyo, Japan and isoelectric point of CMM-forming enzyme was measured compare with isoelectric point markers, commercialized by Amersham Biosciences, Tokyo, Japan.
# [5] = Optimum temperature and optimum pH of the enzyme reaction; assay type: biochemical, Arthrobacter globiformis M6
# Protocol: The enzyme activity of CMM-forming enzyme of the present invention can be assayed as follows: A substrate solution is prepared by dissolving soluble starch in 50 mM acetate buffer (pH 6.0) containing 2 mM CaCl2 to give a concentration of 2% (w/v). A half milliliter of an enzyme solution is added to 0.5 ml of the substrate solution, and the mixture solution is incubated at 40° C. for 30 min. After stopping the reaction by heating at about 100° C. for 10 min, the reaction mixture is admixed with 4,000 units/g-solid of α-glucosidase and 250 units/g-solid of glucoamylase to hydrolyze remaining soluble starch and by-products, oligosaccharides, and followed by the enzyme treatment at 50° C. for 1 hour. The amount of CMM contained in the treated mixture is determined by HPLC described later in Experiment 1. One unit activity of CMM-forming enzyme is defined as the amount of enzyme which forms one μmole of CMM per minute under the above conditions.
# The results are in FIG. 5 (Optimum temperature) and in FIG. 6 (Optimum pH), respectively.
# [6] = recombinant enzyme purified from transformant BMB1
Molecule,Action (CMM-forming enzyme),Degree of coloring (A480 nm) ([1]; heating time 0 min),Degree of coloring (A480 nm) ([1]; heating time 30 min),Degree of coloring (A480 nm) ([1]; heating time 60 min),Degree of coloring (A480 nm) ([1]; heating time 90 min),Degree of coloring (A480 nm) ([2]; heating time 0 min),Degree of coloring (A480 nm) ([2]; heating time 30 min),Degree of coloring (A480 nm) ([2]; heating time 60 min),Degree of coloring (A480 nm) ([2]; heating time 90 min),Degradation rate (%) (Pancreas α-amylase),Degradation rate (%) [3] [%],Degradation rate (%) (Salivary α-amylase),Degradation rate (%) (Small intestinal enzymes),"isoelectric point (pI) ([4]; purified enzyme from Arthrobacter globiformis M6, polyacrylamide gel isoelectrofocusing)","isoelectric point [4, 6]","optimum pH ([5]; purified enzyme from M6, reacted at 40° C. for 30 min)","optimum temperature ([5]; purified enzyme from M6, reacted at pH 6.0 for 30 min) [°C]","optimum pH [5, 6]","optimum temperature of CMM-forming enzyme activity [5, 6] [°C]"
"OC[C@H]1O[C@H](O[C@H]2[C@H](O)[C@@H](O)C(O)O[C@@H]2CO)[C@H](O)[C@@H](O)[C@@H]1O (mixture of isomers) [Maltose, maltose]",−,0.00,0.10,0.30,0.62,0.00,0.02,0.08,0.17,,,,,,,,,,
"OC[C@@H](O)[C@@H](O[C@H]1O[C@H](CO)[C@@H](O)[C@H](O)[C@H]1O)[C@H](O)[C@@H](O)CO [Maltitol, maltitol]",−,,,,,,,,,0,0,0,4,,,,,,
B1,,,,,,,,,,,,,,3.6±0.5,about 3.6±0.5,5.5 to 6.5,50 to 55,5.5 to 6.5,50 to 55
